From PubChem BioAssay (NCI) come the findings set out here.

Several values for one entry are separate records, joined by “and”; a condition that tells them apart may be missing. Identical values can stand only once.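 Growth conditions: 96-well plates. Treatment: test compound, 48 hours, 5 concentrations. Analysis: linear interpolation between bracketing concentrations; unreached endpoints set to highest concentration. Here, GI50 denotes the concentration required for 50% inhibition of growth. At the TGI there is no net growth.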

What all share (test): NCI anticancer screen, dose series, 48 h
Test [1] deals with CAKI-1 renal.
The subject of test [2] is UO-31 renal.
The test system of test [3] is SF-539 CNS.
Test [4] has as its system ACHN renal.
In test [5] the test system is NCI-H226 lung.
Test [6] has as its system SN12C renal.
In test [7] the test system is A498 renal.
Test [8] concerns HCC-2998 colon.
Test [9] has as its system TK-10 renal.
Test [10] has as its system CCRF-CEM leukemia.

On to `COc1cc(Nc2ncc(F)c(Nc3ccc4c(n3)N(COP(=O)(O)O)C(=O)C(C)(C)O4)n2)cc(OC)c1OC`, for which the GI50 in test [1] was 456 nM and 645 nM; in [2], 685 nM and 348 nM; in test [3] it was 605 nM and 454 nM; in test [4] it was 1120 nM and 1210 nM; in test [5] it was 876 nM and 380 nM; in [6], 1010 nM and 1050 nM. Also, the GI50 was 356 nM and 221 nM in test [7]; 16400 nM in test [8]; 774 nM and 768 nM in [9]; 3090 nM and 3840 nM in test [10]. Moreover, the TGI in test [1] was 1.9 µM and > 10 µM; in [2] it was 5.72 µM and 1.65 µM; in test [3], 1.94 µM and 1.81 µM; in [4] it was 12.2 µM and > 10 µM; in [5], 4.78 µM and 2.32 µM; in test [6], 16.6 µM and > 10 µM. Also, the TGI in [7] is 1.37 µM and 0.872 µM; in test [8], more than 100 µM; in [9], 3.06 µM; in [10] it was 44.8 µM and > 10 µM.

Consider `CCN(CC)c1ccc(C(=O)c2ccc(N(CC)CC)cc2)cc1`, for which the GI50 was 364 nM in [1]; 680 nM in test [2]; 436 nM in test [3]; 935 nM in [4]; 2540 nM in test [5]; 787 nM in test [6]. Besides, the GI50 in test [7] is 335 nM; in test [8], 1260 nM; in [9], 1330 nM; in test [10] it was 383 nM. The TGI in test [1] was more than 36.7 µM; in [2], 64.2 µM; in test [3], 10.5 µM; in test [4], more than 100 µM; in test [5] it was 61.6 µM; in test [6] it was 35.5 µM. Besides, the TGI was 4.14 µM in [7], 35.4 µM in [8], 68.9 µM in [9] and more than 100 µM in [10].

Consider `CC(C)(c1ccccc1)c1ccc(OC#N)cc1`, for which the TGI in [1] was more than 100 µM; in test [2] it was 98 µM; in [3] it was more than 100 µM; in test [4] it was more than 100 µM; in [5], more than 100 µM; in test [6], more than 100 µM. In addition, the TGI was more than 100 µM in [7], more than 100 µM in test [8], more than 100 µM in test [9] and more than 76.3 µM in test [10].

With `C=C1C(=O)O[C@H]2[C@H]1CC/C(Cn1cc(-c3ccccc3C(F)(F)F)nn1)=C\CC[C@@]1(C)O[C@@H]21`, the GI50 in test [1] was 1310 nM; in test [2], 1230 nM; in test [3] it was 1760 nM; in test [4] it was 1450 nM; in [5], 1730 nM; in [6], 2480 nM. In addition, the GI50 in test [7] is 3860 nM; in test [8], 1850 nM; in test [9], 1710 nM; in test [10], 767 nM. Further, the TGI in test [1] was 2.63 µM; in [2], 2.61 µM; in test [3] it was 3.56 µM; in test [4], 2.93 µM; in [5] it was 4.69 µM; in test [6], 7.46 µM. Also, the TGI was determined as 15.9 µM in test [7], 3.47 µM in [8], 3.2 µM in [9] and 10.1 µM in test [10].

With `Cc1cccc(C)c1NC(=O)C(=O)Nn1c(NN)nc2ccccc2c1=O`, the TGI in [1], in [2], in [3], in [4], in [5] and in test [6] was more than 100 µM in each case. Further, the TGI in test [7], in test [8], in test [9] and in test [10] was more than 100 µM each time.

`O=C(O)C1CC(O)CN1` (stereo not drawn): the TGI in test [1], in test [2], in [3], in test [4], in [5] and in [6] was more than 100 µM each time. The TGI in test [7], in test [8], in test [9] and in [10] was more than 100 µM each time.

Take `Cc1cnc(C(=O)NNc2nc3sc4c(c3c(=O)n2C)C(C)CCC4)cn1` (stereo not drawn): the GI50 in test [1] was 333 nM; in [2] it was 322 nM; in [3] it was 396 nM; in test [4], 308 nM; in test [5], 404 nM; in [6], 510 nM. Besides, the GI50 in [7] is 1890 nM; in test [8], 529 nM; in test [9], 608 nM; in [10], 245 nM. The TGI in test [1] amounted to 2.49 µM; in test [2] it was 1.86 µM; in test [3], 2.38 µM; in test [4] it was 2.02 µM; in test [5], 3.03 µM; in test [6], 4.55 µM. For the same compound, the TGI in test [7] came to 7.8 µM; in test [8] it was 6.22 µM; in test [9], 11.9 µM.

Turning to `O=C1C(Cl)=C(NCc2ccco2)C(=O)c2ccccc21`, the GI50 in test [1] was 58100 nM; in [2], 38500 nM; in test [3], 20900 nM; in test [4], 27000 nM; in test [5] it was 18800 nM; in [6] it was 25900 nM. Besides, the GI50 was 17700 nM in test [7], 21700 nM in test [8], 22100 nM in [9] and 9880 nM in [10]. Besides, the TGI in [1] is more than 100 µM; in test [2], more than 100 µM; in test [3], 54 µM; in test [4], more than 100 µM; in [5], more than 60.7 µM; in test [6], more than 100 µM. In addition, the TGI in [7] is 59.2 µM; in test [8], 50.8 µM; in test [9], more than 100 µM; in test [10], more than 100 µM.

Regarding `Cc1cccc(NC(=O)c2cccc([N+](=O)[O-])c2O)c1C`, the TGI is more than 100 µM in [1]; 74.7 µM in test [2]; 96.9 µM in test [3]; more than 100 µM in test [4]; more than 87.7 µM in [5]; more than 100 µM in [6]. Also, the TGI in [7] was more than 100 µM; in test [8], more than 100 µM; in [9] it was more than 100 µM; in [10] it was more than 31.6 µM.

Turning to `O=C1C(=Cc2c(O)cc(O)cc2O)C(=O)c2ccccc21`, the TGI in [1] was more than 65.5 µM; in test [2], more than 100 µM; in test [3], more than 58.5 µM; in test [4], more than 57.6 µM; in test [5], more than 63 µM; in test [6], 37.6 µM. Moreover, the TGI in test [7] is 98.7 µM; in [8], more than 56.4 µM; in [9], more than 67.5 µM; in [10], more than 73.1 µM.

Take `CCNC(=O)O[C@H]1CN[C@H](C#Cc2cc3ncnc(Nc4ccc(OCc5cccc(F)c5)c(Cl)c4)c3s2)C1`: the GI50 in [1] is 880 nM; in [2] it was 1490 nM; in test [3], 5770 nM; in test [4], 1990 nM; in test [5], 7090 nM; in [6], 5710 nM. Also, the GI50 in [7] was 1700 nM; in test [8], 4910 nM; in [9] it was 198 nM; in test [10], 2910 nM. Moreover, the TGI was more than 25 µM in [1]; more than 18.4 µM in test [2]; more than 18.4 µM in test [3]; more than 25 µM in test [4]; more than 21.1 µM in [5]; more than 25 µM in [6]. For the same compound, the TGI in [7] was 11.7 µM; in [8], 15.5 µM; in test [9], 11.4 µM; in test [10], more than 25 µM.

`O=C1C(=O)c2cccnc2-c2ncccc21`: the GI50 was 605 nM in test [1]; 159 nM in test [2]; 184 nM in [3]; 54.5 nM in test [4]; 696 nM in test [5]; 250 nM in test [6]. For the same compound, the GI50 in [7] is 199 nM; in test [8], 1320 nM; in test [9], 1240 nM; in test [10], 79.7 nM. Also, the TGI in test [1] was determined as 1.92 µM; in test [2], 0.486 µM; in test [3] it was 0.502 µM; in test [4], 0.318 µM; in test [5] it was 2.05 µM; in [6], 0.848 µM. Besides, the TGI in test [7] was 2.21 µM; in test [8] it was 2.92 µM; in test [9], 2.6 µM; in [10], 0.618 µM.

Consider `Cc1cc(C)cc(NC(N)=S)c1`, for which the TGI in [1], in test [2], in test [3], in test [4], in [5] and in test [6] was more than 100 µM throughout. The TGI is more than 100 µM in test [7], more than 100 µM in test [8], more than 100 µM in test [9] and 48 µM in test [10].

For the compound `COc1cc(C2CC(c3ccc(Nc4ccnc5cc(Cl)ccc45)cc3)=NN2c2ccc(Cl)cc2)cc(OC)c1OC` (stereo not drawn), the GI50 in test [1] is 2120 nM; in [2] it was 1580 nM; in test [3] it was 1740 nM; in test [4], 1850 nM; in test [5], 4770 nM; in test [6], 7560 nM. In addition, the GI50 was 1660 nM in [7], 2090 nM in [8], 5050 nM in test [9] and 2500 nM in test [10]. In addition, the TGI was more than 100 µM in test [1]; more than 100 µM in [2]; 7.36 µM in [3]; more than 100 µM in test [4]; more than 100 µM in test [5]; more than 100 µM in test [6]. Besides, the TGI in test [7] was 50.6 µM; in test [8], 8.03 µM; in [9], more than 100 µM; in test [10], more than 100 µM.

`C=C1CC2(OC1=O)C(=O)Nc1ccccc12` (stereo not drawn): the GI50 in test [1] is 1290 nM; in test [2] it was 2090 nM; in test [3], 1880 nM; in [4], 1090 nM; in test [5], 1850 nM; in test [6] it was 3740 nM. In addition, the GI50 in test [7] was 5910 nM; in test [8], 9350 nM; in test [9] it was 1800 nM; in [10], 2110 nM. Moreover, the TGI in [1] was determined as 2.65 µM; in test [2], 5.79 µM; in test [3], 3.81 µM; in test [4], 2.29 µM; in test [5] it was 5.24 µM; in [6] it was 14.1 µM. In addition, the TGI in test [7] is 19.4 µM; in test [8], 23.2 µM; in [9], 4.09 µM; in test [10] it was 7.15 µM.

In the case of `COc1cc2c(cc1OC)C13CCN4CC5CCOC6CC(=O)N2C1C6C5CC43` (stereo not drawn), the TGI in test [1], in [2], in test [3], in test [4], in test [5] and in test [6] was more than 100 µM in each case. The TGI in test [7], in test [8], in test [9] and in test [10] was more than 100 µM in each case.

As to `Cc1cn(-c2cc(NC(=O)c3ccc(C)c(Nc4nccc(-c5cccnc5)n4)c3)cc(C(F)(F)F)c2)cn1`, the GI50 in [1] was > 10000 nM and 7370 nM; in test [2], 1750 nM and 1580 nM; in [3], > 10000 nM and 15400 nM; in test [4], > 10000 nM and 9360 nM; in test [5], > 10000 nM and 16200 nM; in [6], > 10000 nM and 13000 nM. Moreover, the GI50 in test [7] is > 10000 nM and 4090 nM; in test [9] it was 5260 nM and 4070 nM; in test [10] it was > 10000 nM and 1250 nM. Further, the TGI in [1] is > 10 µM and 14.3 µM; in test [2], 8.9 µM and 4.56 µM; in [3], > 10 µM and 31.9 µM; in test [4], > 10 µM and 27.2 µM; in [5] it was > 10 µM and 39.8 µM; in test [6], > 10 µM and 29 µM. In addition, the TGI in [7] is > 10 µM and 12.1 µM; in [8], more than 65 µM; in test [9] it was > 10 µM and 9.38 µM; in [10], more than 32.3 µM.
